Data reported in patent US20250018019A1, “TREATMENT OF INTERFERON DRIVEN INFLAMMATION” (The Provost, Fellows, Foundation Scholars and the other …, priority 2023, published 2025).
Where a name gives a salt, the structure may show the parent alone.

Legend:
BMDMs [1] = assay: Seahorse XF Glycolysis Stress Test (ECAR); assay type: cell-based, mouse; conditions: BMDMs pre-treated 3 h, LPS 4 h
Protocol: All compounds used DMSO as a vehicle except for 4-hydroxy tamoxifen (EtOH), NAC (PBS), and AOAA for tracing experiments (Media). LPS was used at a concentration of 100 ng/ml for indicated timepoints (2, 3, 4, 6, 8, 24, 48 h). FHIN1 (10 or 20 μM), MMF (50 or 100 μM), DMF (25 μM), AOAA (5 mM), oligomycin (10 μM), CCCP (50 μM) NAC (1 mM), and IMT1 (10 μM) pre-treatments were performed for 3 h prior the addition of LPS. Cells were treated with valinomycin (10 nM) 15 mins before LPS stimulation. Anti-CD210 or IgG control (10 μg/ml) antibodies were added to cells 1 h prior to LPS stimulation. Recombinant mouse IL-10 protein (100 ng/ml) was added to cells at the same time as LPS. Cells were treated with IFN-B1 (220 ng/ml) for 3 h. Cells were treated with C-178 (1 μM) 1 h prior to LPS stimulation or transfection with 2′3′-cGAMP (1.5 μg/ml) for 4 hrs to achieve cGAS-STING activation. Cells were treated with ODN 2088 (1 μM) for 1 hr prior to LPS stimulation or transfection with CPG ODN 1826 (1.5 μg/ml) to achieve TLR9 activation. 3 different timepoints of 4-hydroxy tamoxifen (TAM) (600 nM or 2 μM) or EtOH treatment were performed-these are specified in the individual figure legends. For ‘48 h’ treatments EtOH/TAM was added on day 5 of 6 during the BMDM differentiation protocol. On day 6 they were plated with EtOH/TAM (left overnight) and treated the following day. […]

BMDMs [2] = assay: ELISA of cytokine release from BMDMs; assay type: cell-based, mouse; conditions: for IL-6 release / IL-10 release / TNF-α release: BMDMs pre-treated 3 h
Protocol: All compounds used DMSO as a vehicle except for 4-hydroxy tamoxifen (EtOH), NAC (PBS), and AOAA for tracing experiments (Media). LPS was used at a concentration of 100 ng/ml for indicated timepoints (2, 3, 4, 6, 8, 24, 48 h). FHIN1 (10 or 20 μM), MMF (50 or 100 μM), DMF (25 μM), AOAA (5 mM), oligomycin (10 μM), CCCP (50 μM) NAC (1 mM), and IMT1 (10 μM) pre-treatments were performed for 3 h prior the addition of LPS. Cells were treated with valinomycin (10 nM) 15 mins before LPS stimulation. Anti-CD210 or IgG control (10 μg/ml) antibodies were added to cells 1 h prior to LPS stimulation. Recombinant mouse IL-10 protein (100 ng/ml) was added to cells at the same time as LPS. Cells were treated with IFN-B1 (220 ng/ml) for 3 h. Cells were treated with C-178 (1 μM) 1 h prior to LPS stimulation or transfection with 2′3′-cGAMP (1.5 μg/ml) for 4 hrs to achieve cGAS-STING activation. Cells were treated with ODN 2088 (1 μM) for 1 hr prior to LPS stimulation or transfection with CPG ODN 1826 (1.5 μg/ml) to achieve TLR9 activation. 3 different timepoints of 4-hydroxy tamoxifen (TAM) (600 nM or 2 μM) or EtOH treatment were performed-these are specified in the individual figure legends. For ‘48 h’ treatments EtOH/TAM was added on day 5 of 6 during the BMDM differentiation protocol. On day 6 they were plated with EtOH/TAM (left overnight) and treated the following day. For ‘72 h’ treatments EtOH/TAM was added on day […] of 6 during the BMDM differentiation protocol. On day 6 they were plated with EtOH/TAM (left overnight) and treated the following day. For ‘96 h’ treatments EtOH/TAM was added on day […] of 6 during the BMDM differentiation protocol. On day 6 they were plated with EtOH/TAM and treated 2 days later.
Pre-designed silencer select siRNAs for Cgas (s103166), Tmem173 (s91058), Tlr3 (s100579), Tlr9 (s96268), As/(s99640), Tlr7 (s100720), Ddx58 (s106376), Ifih1 (s89787), Nrf2 (s70522), Atf4 (s62689) and negative control (4390843) were ordered from Thermo Fisher. siRNA sequences are given in Table S2. Cells were transfected with 50 nM siRNA using 5 μl lipofectamine RNAiMAX according to manufacturer's instructions (Thermo Fisher). Cells were transfected in medium without serum and antibiotics which was replaced with complete medium 8 hours later. Cells were subsequently left for at least a further 12 hours prior to treatment.
BMDMs were plated in the presence or absence of ultrapure ethidium bromide (100 ng/ml) and incubated for a further 6 days prior to treatment. Depletion of mtDNA was determined by genomic DNA isolation followed by qPCR using primers specific for areas of mitochondrial DNA (D-loop) and areas of mtDNA that are not inserted into nuclear DNA (Non-NUMT).
DuoSet ELISA kits for IL-1β, TNFα, IL-6, IL-10, and GDF15 were purchased from R&D Systems and were carried out according to the manufacturer's instructions with appropriately diluted cell supernatants added to each plate in duplicate or triplicate. IFN-β was determined using DuoSet ELISA kit from R&D Systems or Abcam (ab252363). Quantikine ELISA kit for IFN-β (R&D Systems) was used for determination of IFN-β concentration in serum samples and from human cells, and these were also carried out according to the manufacturer's instructions. Absorbance at 450 nm was quantified using a FLUOstar Optima plate reader. Corrected absorbance values were calculated by subtracting the background absorbance, and cytokine concentrations were subsequently obtained by extrapolation from a standard curve plotted on GraphPad Prism 9.2.0.

human PBMCs = assay: RT-qPCR gene expression in human PBMCs; assay type: cell-based; conditions: LPS-stimulated human PBMCs, LPS 4 h
Protocol: Human blood samples from healthy donors were collected and processed at the School of Biochemistry and Immunology in TBSI (TCD). Blood samples were obtained anonymously and written informed consent for the use of blood for research purposes has been obtained from the donors. All the procedures involving experiments on human samples have been approved by the School of Biochemistry and Immunology Research Ethics Committee (TCD). Experiments were conducted according to the TCD guide on good research practice, which follows the guidelines detailed in the National Institutes of Health Belmont Report (1978) and the Declaration of Helsinki. […] The remaining pellet of mononuclear cells was resuspended, counted, and plated at 1×10^6 cells/ml in RPMI supplemented with FCS (10%) and penicillin/streptomycin (1%). […]
RNA extraction from cells was carried out using a Purelink™ RNA kit (Invitrogen) according to the manufacturer's instructions. […] Isolated RNA was quantified using a NanoDrop 2000 spectrophotometer, and RNA concentration was normalised to the lowest concentration across all samples with RNAse-free water. If necessary, samples were DNAse-treated after quantification using DNAse I (Thermo Fisher) according to the manufacturer's instructions. […]

SMILES | glycolysis (ECAR) (BMDMs [1]) | IL-6 release (BMDMs [2]; LPS 4 h) | IL-10 release (BMDMs [2]; LPS 4 h) | TNF-α release (BMDMs [2]; LPS 4 h) | GDF15 release (BMDMs [2]; BMDMs pre-treated, LPS 4 h) | LPS-induced IFN-β release (BMDMs [2]; BMDMs pre-treated, LPS 4 h) | TNF-α production (BMDMs [2]; BMDMs pre-treated, co-treated with recombinant IL-10 100 ng/ml, LPS 4 h) | LPS-induced IFN-β release in the presence of EtBr (BMDMs [2]; BMDMs treated with EtBr 100 ng/ml 6 days (mtDNA depletion), then FHIN1, LPS 4 h) | augmentation in IFN-β release with knockdown of Tlr3 (BMDMs [2]; BMDMs, siRNA 50 nM, LPS 4 h) | boost in IFN-β release with silencing of Tlr7, Ddx58 (RIG-I) or Ifih1 (MDA5) (BMDMs [2]; BMDMs, siRNA 50 nM, LPS 4 h) | IL10 expression (human PBMCs) | Tnfa expression (human PBMCs)
COC(=O)/C=C/C(=O)OC [DMF, dimethyl fumarate] | suppressed glycolysis | reduced | decreased | increased |  |  |  |  |  |  |  | 
CCOC(=O)[C@@]12CCCC=C1N(Cc1ccc(-c3ccccc3)cc1)C(=O)[C@H]2CC(=O)NC [FHIN1, Fumarate hydratase-IN-1] |  | reduced | decreased | increased | drove GDF15 release | increase | failed to impair STAT3 phosphorylation or augment TNF-α production | no longer boosted | did not affect | abrogated | suppressed | increased
